Source: PubChem BioAssay (NCI)
“And” between values parts separate entries of the source, which are not always exact repeats. Identical values can stand only once.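 Cultured in 96-well plates, cells were exposed to test compound for 48 hours across five concentrations. GI50 = concentration required for 50% inhibition of growth. TGI: total growth inhibition.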

Legend:
Test in all cases: growth of human tumour cells (NCI), 48 h
[1] = test system: DLD-1 colon
[2] = test system: DMS 114 small cell lung
[3] = test system: DMS 273 small cell lung
[4] = test system: HOP-18 NSCLC
[5] = test system: KM20L2 colon
[6] = test system: MDA-N
[7] = test system: XF 498 CNS
[8] = test system: RXF-631 renal
[9] = test system: SNB-78 CNS

CC1=C(/C=C/C(C)=C/C=C/C(C)=C/C(=O)O)C(C)(C)CCC1 was tested, and the TGI [1] was > 100 µM, the TGI [2] was > 100 µM and the TGI [3] was > 100 µM. For the same compound, the TGI [4] was > 100 µM, the TGI [5] was > 100 µM and the TGI [6] was > 100 µM. For the same compound, the TGI [7] was > 100 µM.

For CC(=O)O[C@@]1(C)[C@@H](C)C(=O)O[C@@H]2CCN3CC=C(COC(=O)[C@]1(C)O)[C@H]23, the TGI [1] was > 100 µM, the TGI [2] was > 100 µM and the TGI [3] was > 100 µM. The TGI [5] was > 100 µM.

For CC(C(N)C(=O)NC(C(=O)O)C1OC(n2ccc(=O)[nH]c2=O)C(O)C1O)C(O)c1ccc(O)cn1 (configuration not stated), the TGI [6] was > 100 µM.

For Cc1cccc2c1CCC21OC(=O)c2c1ccc1ccccc21 (configuration not stated), the TGI [1] was > 100 µM, the TGI [2] was 72.4 µM and the TGI [3] was 91.5 µM. The TGI [4] was > 100 µM, the TGI [5] was > 100 µM and the TGI [8] was 50.2 µM.

With CC(C)=CCC/C(C)=C\CCC1(C)OC(=O)C2CC21 (configuration not stated) the GI50 [6] was > 100 µM and 23.8 µM and the TGI [6] was > 100 µM and 85.1 µM.

In the case of NC1=NN(c2ccccc2)C(=O)C1C(=O)C(=O)Nc1nccs1 (configuration not stated), the TGI [1] was > 100 µM, the TGI [2] was > 100 µM and the TGI [3] was > 100 µM. The TGI [4] was > 100 µM, the TGI [5] was > 100 µM and the TGI [8] was > 100 µM. For the same compound, the TGI [9] was > 100 µM.

CSc1snc2sc3c(Cl)nnnc3c12 gave a TGI [1] of 22.7 µM, a TGI [2] of 29 µM and a TGI [3] of 23.9 µM. The TGI [4] was 33.9 µM, the TGI [5] was 30.9 µM and the TGI [8] was 38.4 µM. For the same compound, the TGI [9] was 38.1 µM and the TGI [7] was 27.4 µM.

For COc1ccc2oc(C(=O)O)c3c2c1CCC3CCC(=O)O (configuration not stated), the TGI [1] was > 100 µM, the TGI [2] was > 100 µM and the TGI [3] was > 100 µM. For the same compound, the TGI [8] was > 100 µM, the TGI [9] was > 100 µM and the TGI [7] was > 100 µM.

Cn1c(N)nc(=O)c2c1N(C1OC(CO)C(O)C1O)CN2Cc1ccccc1 (configuration not stated) was tested, and the TGI [1] was > 100 µM, the TGI [2] was > 100 µM and the TGI [3] was > 100 µM. For the same compound, the TGI [4] was > 100 µM, the TGI [5] was > 100 µM and the TGI [8] was > 100 µM. The TGI [9] was > 100 µM and the TGI [7] was > 100 µM.

O=C1C2C(C(=O)N1c1ccccc1)C1([N+](=O)[O-])C=C3c4ccccc4N(C(=O)c4ccccc4)C32C2C(=O)N(c3ccccc3)C(=O)C21 (configuration not stated) was tested, and the TGI [1] was > 100 µM, the TGI [2] was > 100 µM and the TGI [3] was > 100 µM. The TGI [8] was > 100 µM, the TGI [9] was > 100 µM and the TGI [7] was > 100 µM.

For CCCCCCCCCCCCCCCCCCOCC(CCP(=O)(CP(=O)(O)O)Oc1ccccc1)OCCCCCCCCCCCCCCCCCC (configuration not stated), the TGI [6] was > 100 µM.

Work on CSC(=S)OC1CC(n2cnc3c(NC(=O)c4ccccc4)ncnc32)OC1CO[Si](C)(C)C(C)(C)C (configuration not stated) yielded a TGI [6] of 47.4 µM.

With CCc1cc(CCC(=O)Nc2ccccc2[N+](=O)[O-])[nH]c(=S)n1 the TGI [1] was > 100 µM, the TGI [2] was > 100 µM and the TGI [4] was > 100 µM. The TGI [5] was > 100 µM, the TGI [8] was > 100 µM and the TGI [9] was > 100 µM.

With COC(=O)C12OCC34C(CC5C(C)C6=CC(=O)OC6=CC5(C)C3C(O)C1O)OC(=O)C(O)C24 (configuration not stated) the GI50 [2] was 0.0441 µM, the TGI [2] was 0.527 µM and 4.35 µM and the GI50 [3] was 0.0707 µM. The TGI [3] was 0.528 µM and 0.359 µM, the GI50 [4] was 0.929 µM and the GI50 [5] was 0.638 µM. For the same compound, the TGI [5] was 30.9 µM, the GI50 [9] was 0.402 µM and the TGI [9] was 8.31 µM. For the same compound, the GI50 [7] was 0.0609 µM and 0.344 µM and the TGI [7] was 0.291 µM and 1.93 µM.

In the case of Cc1ccc(NS(=O)(=O)c2cccc(C#N)c2)c2[nH]cc(C#N)c12, the GI50 [6] was 4.1 µM and the TGI [6] was > 91.6 µM.

C=C(C(=C)N1N=NC2C3CCC(C3)C21)N1N=NC2C3CCC(C3)C21 (configuration not stated) was tested, and the TGI [1] was > 100 µM, the TGI [2] was > 100 µM and the TGI [3] was > 100 µM. The TGI [4] was > 100 µM, the TGI [8] was > 100 µM and the TGI [9] was > 100 µM. The TGI [7] was > 100 µM.

For O=C(N/N=C1\C(=O)N(c2nccs2)C(=O)C(=O)C1c1nc2ccccc2s1)c1ccccc1O (configuration not stated), the TGI [1] was > 100 µM, the TGI [2] was > 100 µM and the TGI [3] was > 100 µM. For the same compound, the TGI [4] was 77.4 µM, the TGI [5] was > 100 µM and the TGI [9] was > 100 µM. For the same compound, the TGI [7] was > 100 µM.

COc1cc(C2=N/C(=C/c3cccs3)C(=O)O2)cc(OC)c1OC was tested, and the TGI [6] was > 100 µM.

For Nc1n[n+](-c2ccccc2)no1, the TGI [1] was > 100 µM, the TGI [2] was 89.8 µM and the TGI [3] was > 100 µM. For the same compound, the TGI [5] was > 100 µM and the TGI [9] was > 100 µM.

In the case of CC1=C(O)/C(=C/C(C)CCC/C(C)=C/C=C/C(C)CCCc2ccoc2)OC1=O (configuration not stated), the TGI [1] was > 100 µM, the TGI [2] was > 100 µM and the TGI [3] was > 100 µM. For the same compound, the TGI [5] was > 100 µM, the TGI [9] was > 100 µM and the TGI [7] was 34.6 µM.

N#CC1(C#N)C2C=CC(c3coc4cccc2c34)C1(C#N)C#N (configuration not stated) was tested, and the TGI [1] was 4.17 µM, the TGI [2] was 9.98 µM and the TGI [3] was 31.6 µM. It also gave a TGI [4] of 30.4 µM, a TGI [5] of 35.5 µM and a TGI [9] of 43.1 µM. The TGI [7] was 15.3 µM.

COc1ccc(/C=C2\CCC(CCN(C)C)(C3=CCCC3)C2=O)cc1Br (configuration not stated) showed a TGI [1] of 16.4 µM, a TGI [2] of 14.9 µM and a TGI [3] of 14.6 µM. It also gave a TGI [4] of 25.2 µM, a TGI [5] of 3.56 µM and a TGI [8] of 31.1 µM. The TGI [9] was 30.4 µM and the TGI [7] was 8.72 µM.

CCCCCCCCCC(=O)OCC1OC(n2cc(F)c(=O)[nH]c2=O)C(NC(=O)OCc2ccccc2)C(OC(=O)CCCCCCCCC)C1O (configuration not stated) was tested, and the TGI [2] was 49.1 µM and the TGI [3] was > 100 µM.

For Cc1cccc(C(C)(C)C)c1NC(=O)CCc1nc(=S)[nH][nH]1, the TGI [1] was > 100 µM, the TGI [2] was > 100 µM and the TGI [3] was > 100 µM. For the same compound, the TGI [5] was > 100 µM, the TGI [8] was > 100 µM and the TGI [9] was > 100 µM. For the same compound, the TGI [7] was > 100 µM.

With CCOC(=O)C(CC/C=C\c1ccccc1)N1CCC[C@H]1C(=O)OC (some centres not stated) the TGI [1] was > 100 µM, the TGI [2] was > 100 µM and the TGI [3] was > 100 µM. For the same compound, the TGI [4] was > 100 µM, the TGI [5] was > 100 µM and the TGI [9] was > 100 µM. For the same compound, the TGI [7] was > 100 µM.

For O=NNc1ccc(Sc2ccc(NN=O)cn2)nc1, the TGI [6] was > 100 µM.

For CCOC(=O)c1cnc2sc3ccc4ccccc4c3n2c1=O, the TGI [1] was > 100 µM, the TGI [2] was > 100 µM and the TGI [3] was > 100 µM. The TGI [4] was > 100 µM, the TGI [5] was > 100 µM and the TGI [8] was > 100 µM. The TGI [9] was > 100 µM.

With O=C(O/N=C1/CCC/C1=C\c1ccccc1)c1ccc(Cl)c(Cl)c1 the TGI [1] was > 100 µM, the TGI [2] was > 100 µM and the TGI [3] was > 100 µM. The TGI [4] was > 100 µM, the TGI [5] was > 100 µM and the TGI [8] was > 100 µM. For the same compound, the TGI [9] was > 100 µM.

Work on CN(Cc1cc(Br)cc(Br)c1O)Cc1c(O)ccc2ccccc12 yielded a TGI [6] of 39.9 µM.

CCOC(=O)c1cnc2c(ccc3ncccc32)c1NCCCN(CC)CC was tested, and the TGI [1] was > 100 µM, the TGI [3] was > 100 µM and the TGI [4] was > 100 µM. For the same compound, the TGI [5] was > 100 µM, the TGI [9] was > 100 µM and the TGI [7] was > 100 µM.

In the case of O=C1C2CCN(CC2)C1(CO)CO, the TGI [6] was > 100 µM.

With O=C1OC(=O)C2CCCC3CCCC1C32 (configuration not stated) the TGI [6] was > 100 µM.

C/C=C(\CCOS(=O)(=O)c1ccc(C)cc1)[Si](C)(C)C was tested, and the TGI [1] was > 100 µM, the TGI [2] was > 100 µM and the TGI [3] was > 100 µM. For the same compound, the TGI [4] was > 100 µM, the TGI [5] was > 100 µM and the TGI [8] was > 100 µM. The TGI [9] was > 100 µM and the TGI [7] was > 100 µM.

For O=C(CCn1[nH]c(=O)c(Cl)c(Cl)c1=O)NNC(=O)C[n+]1ccccc1, the TGI [1] was > 100 µM, the TGI [2] was > 100 µM and the TGI [3] was > 100 µM. For the same compound, the TGI [4] was > 100 µM, the TGI [5] was > 100 µM and the TGI [8] was > 100 µM. The TGI [7] was > 100 µM.
